In patent US10023587B2, “Oxabicycloheptanes and oxabicycloheptenes, their preparation and use” (LIXTE BIOTECHNOLOGY, INC., priority 2007, dated 2018):

Tested on: GBM cell line U373
Assay: cells
Format: cell-based, human
Details: for Percent of Control, Observed: U373 (Table 4)
Description: To observe the effects Compound 100 in combination with retinoic acids, Compound 100 was combined with all-trans retinoic acid. […] The total number of cells is counted in the triplicate cultures at each dose and in controls after 7 days and the average number of cells and the standard deviation is determined.
The amount of inhibition of GBM cell growth is expressed as the proportion of the number of cells in the experimental dishes compared to the number of cells in control dishes containing only the drug vehicle and culture medium. The average percent of control is plotted and bracketed by one standard deviation calculated from the triplicate measurements.
Synergism (potentiation) of the inhibitory activity of two drugs in combination is said to be present when the percent survival in the presence of two drugs is less than the product of the percent survivals of the two drugs used alone at the same doses in the combination.

## CN1CCN(C(=O)C2C(C(=O)O)[C@H]3CC[C@@H]2O3)CC1 (stereo partly drawn) [Compound 100, Endothall 4-Methylpiperazine Monoamide]
Compound 100 1 μM
  Percent of Control, Observed: 97.9 +/− 1.0% of Control
Compound 100 5 μM
  Percent of Control, Observed: 52.5 +/− 2.9% of Control
Homo sapiens, U373 MG, 168 h, Compound 100 1 uM, U373, 7 days (Table 3), read-out: Percent of Control, Observed
  activity at 1 µM: 78%
